Test results as given in ChEMBL document CHEMBL3784949 (Psychopharmacology (Berl), 1987).

Assays:
[1] = Terminal half life in psychotic patient (9 patients) at 2.9 +/- 1.2 mg, po by reversed phase HPLC method; assay type: ADME, organism-based; conditions: human, in vivo, 2.9 mg, read-out: beta t1/2 (converted)
[2] = Terminal phase volume of distribution at steady state in psychotic patient (9 patients) at 3.5 +/- 1.2 mg, iv by reversed phase HPLC method; assay type: ADME, organism-based; conditions: human, in vivo, 3.5 mg, read-out: Vbeta
[3] = Terminal half life in psychotic patient (9 patients) at 3.5 +/- 1.2 mg, iv by reversed phase HPLC method; assay type: ADME, organism-based; conditions: human, in vivo, 3.5 mg, read-out: beta t1/2 (converted)
[4] = Terminal phase volume of distribution at steady state in psychotic patient (9 patients) at 3.5 +/- 1.2 mg, iv by reversed phase HPLC method based model-dependent approach analysis; assay type: ADME, organism-based; conditions: human, in vivo, 3.5 mg, read-out: Vbeta
[5] = Volume of distribution at steady state in psychotic patient (9 patients) at 3.5 +/- 1.2 mg, iv by reversed phase HPLC method; assay type: ADME, organism-based; conditions: human, in vivo, 3.5 mg, read-out: Vdss
[6] = Terminal phase volume of distribution at steady state in psychotic patient (9 patients) at 3.5 +/- 1.2 mg, iv by reversed phase HPLC method based model-independent approach analysis; assay type: ADME, organism-based; conditions: human, in vivo, 3.5 mg, read-out: Vbeta
[7] = Unbound fraction in psychotic patient (9 patients) at 3.5 +/- 1.2 mg, iv by reversed phase HPLC method; assay type: ADME, organism-based; conditions: human, in vivo
Plasma = experiment: Plasma concentration in psychotic patient; assay type: ADME; conditions: human
[8] = Unbound fraction in human serum; assay type: ADME, cell-free

half-life [1]: 18.1 h | Vd [2]: 9.5 L/kg | half-life [3]: 18.8 h | Vd [4]: 9.6 L/kg | Vd [5]: 7.9 L/kg | Vd [6]: 9.5 L/kg | Fu [7]: 0.6% | Cp (Plasma): 5 ng/mL | fraction unbound [8]: 0.08
SMILES: O=C(CCCN1CCC(O)(c2ccc(Cl)cc2)CC1)c1ccc(F)cc1 [HALOPERIDOL]
